Test results as given in US20200339625A1, “NOVEL RADIOMETAL-BINDING COMPOUNDS FOR DIAGNOSIS OR TREATMENT OF PROSTATE SPECIFIC MEMBRANE ANTIGEN-EXPRESSING CANCER” (PROVINCIAL HEALTH SERVICES AUTHORITY, priority 2017, published 2020).

Test system: mice bearing LNCaP xenografts
Assay: Biodistribution of 177Lu-labeled compounds
Format: in vivo
Experimental: 1.17 SPECT/CT Imaging, Biodistribution and Endoradiotherapy Studies
SPECT/CT imaging and biodistribution were performed using NOD-scid IL2Rgammanu^null (NSG) male mice, and the endoradiotherapy study was conducted using NOD.Cg-Rag1^tm1MomII2rg^tm1WjI/SzJ (NRG) male mice. The mice were maintained and the experiments were conducted in according to the guidelines established by the Canadian Council on Animal Care and approved by Animal Ethics Committee of the University of British Columbia. Mice were anesthetized by inhalation with 2% isoflurane in oxygen, and implanted subcutaneously with 1×10^7 LNCaP cells posterior to the left shoulder. Mice were used for studies when the tumor reached 5-8 mm in diameter 5-6 weeks after inoculation.
For biodistribution studies, the mice were injected with ^177Ludabeled PSMA-617 or HTK01169 (2-4 MBq) as described above. At predetermined time points (1, 4, 24, 72, or 120 h post-injection), the mice were euthanized by CO2 inhalation. Blood was withdrawn immediately from the heart, and the organs/tissues of interest were collected. The collected organs/tissues were weighed and counted using an automated gamma counter. For the blocking study, mice were co-injected with ^177Lu-HTK01169 (2-4 MBq) and 50 nmol of the non-radioactive standard, and organs/tissues of interest were collected at 4 h post-injection.

`O=C([O-])CN1CCN(CC(=O)[O-])CCN(CC(=O)NCC2CCC(C(=O)N[C@@H](Cc3ccc4ccccc4c3)C(=O)NCCCC[C@H](NC(=O)N[C@@H](CCC(=O)O)C(=O)O)C(=O)O)CC2)CCN(CC(=O)[O-])CC1.[177Lu+3]` (stereo partly shown) [^177Lu-PSMA-617, reference compound] was tested, and the “tumor-to-background contrast ratios, trend” value (1-120 h) was “improved over time as well”, the Adrenal glands uptake (1 h post-injection) was 4.88±2.41 % ID/g and the Blood uptake (1 h post-injection) was 0.68±0.23 % ID/g. It also gave a Bone uptake (1 h post-injection) of 0.14 ± 0.06 % ID/g, a Brain uptake (1 h post-injection) of 0.03 ± 0.01 % ID/g and a Fat uptake (1 h post-injection) of 0.46 ± 0.18 % ID/g. The Heart uptake (1 h post-injection) was 0.28 ± 0.10 % ID/g, the Intestine uptake (1 h post-injection) was 0.26 ± 0.16 % ID/g and the Kidneys uptake (1 h post-injection) was 97.2±19.4 % ID/g. It also gave a Liver uptake (1 h post-injection) of 0.26 ± 0.15 % ID/g, a Lung uptake (1 h post-injection) of 1.34±0.39 % ID/g and a Muscle uptake (1 h post-injection) of 0.18 ± 0.06 % ID/g. It also gave a Pancreas uptake (1 h post-injection) of 0.33 ± 0.18 % ID/g, a Seminal uptake (1 h post-injection) of 0.14 ± 0.08 % ID/g and a Spleen uptake (1 h post-injection) of 3.34±1.77 % ID/g. It also gave a Stomach uptake (1 h post-injection) of 0.18 ± 0.14 % ID/g, a Testes uptake (1 h post-injection) of 0.49 ± 0.22 % ID/g and a Tumor uptake (1 h post-injection) of 15.1±5.58 % ID/g. The Tumor/blood ratio (1 h post-injection) was 22.8 ± 6.85, the Tumor/kidney ratio (1 h post-injection) was 0.15 ± 0.04 and the Tumor/muscle ratio (1 h post-injection) was 86.9 ± 26.6. For the same compound, the Adrenal glands uptake (4 h post-injection) was 0.40 ± 0.18 % ID/g, the Blood uptake (4 h post-injection) was 0.12 ± 0.18 % ID/g and the Bone uptake (4 h post-injection) was 0.06 ± 0.03 % ID/g. It also gave a Brain uptake (4 h post-injection) of 0.02 ± 0.00 % ID/g, a Fat uptake (4 h post-injection) of 0.16 ± 0.11 % ID/g and a Heart uptake (4 h post-injection) of 0.04 ± 0.02 % ID/g. It also gave an Intestine uptake (4 h post-injection) of 0.07 ± 0.04 % ID/g, a Kidneys uptake (4 h post-injection) of 26.6 ± 19.1 % ID/g and a Liver uptake (4 h post-injection) of 0.08 ± 0.06 % ID/g. The Lung uptake (4 h post-injection) was 0.16 ± 0.07 % ID/g, the Muscle uptake (4 h post-injection) was 0.05 ± 0.03 % ID/g and the Pancreas uptake (4 h post-injection) was 0.05 ± 0.01 % ID/g. The Seminal uptake (4 h post-injection) was 0.02 ± 0.01 % ID/g, the Spleen uptake (4 h post-injection) was 0.24 ± 0.14 % ID/g and the Stomach uptake (4 h post-injection) was 0.04 ± 0.02 % ID/g. The Testes uptake (4 h post-injection) was 0.06 ± 0.01 % ID/g, the Tumor uptake (4 h post-injection) was 14.5 ± 1.83 % ID/g and the Tumor/blood ratio (4 h post-injection) was 290 ± 175. It also gave a Tumor/kidney ratio (4 h post-injection) of 0.79 ± 0.48, a Tumor/muscle ratio (4 h post-injection) of 371 ± 171 and an Adrenal glands uptake (24 h post-injection) of 0.06 ± 0.03 % ID/g. The Blood uptake (24 h post-injection) was 0.00 ± 0.00 % ID/g, the Bone uptake (24 h post-injection) was 0.03 ± 0.02 % ID/g and the Brain uptake (24 h post-injection) was 0.01 ± 0.00 % ID/g. For the same compound, the Fat uptake (24 h post-injection) was 0.08 ± 0.03 % ID/g, the Heart uptake (24 h post-injection) was 0.01 ± 0.00 % ID/g and the Intestine uptake (24 h post-injection) was 0.02 ± 0.00 % ID/g. For the same compound, the Kidneys uptake (24 h post-injection) was 0.58 ± 0.22 % ID/g, the Liver uptake (24 h post-injection) was 0.03 ± 0.01 % ID/g and the Lung uptake (24 h post-injection) was 0.03 ± 0.01 % ID/g. For the same compound, the Muscle uptake (24 h post-injection) was 0.01 ± 0.00 % ID/g, the Pancreas uptake (24 h post-injection) was 0.01 ± 0.00 % ID/g and the Seminal uptake (24 h post-injection) was 0.01 ± 0.00 % ID/g. For the same compound, the Spleen uptake (24 h post-injection) was 0.05 ± 0.01 % ID/g, the Stomach uptake (24 h post-injection) was 0.04 ± 0.02 % ID/g and the Testes uptake (24 h post-injection) was 0.02 ± 0.01 % ID/g. The Tumor uptake (24 h post-injection) was 10.9 ± 3.30 % ID/g, the Tumor/blood ratio (24 h post-injection) was 2293 ± 651 and the Tumor/kidney ratio (24 h post-injection) was 20.7 ± 8.39. It also gave a Tumor/muscle ratio (24 h post-injection) of 1582 ± 353, an Adrenal glands uptake (72 h post-injection) of 0.10 ± 0.06 % ID/g and a Blood uptake (72 h post-injection) of 0.00 ± 0.00 % ID/g. For the same compound, the Bone uptake (72 h post-injection) was 0.05 ± 0.02 % ID/g, the Brain uptake (72 h post-injection) was 0.01 ± 0.00 % ID/g and the Fat uptake (72 h post-injection) was 0.05 ± 0.02 % ID/g. It also gave a Heart uptake (72 h post-injection) of 0.01 ± 0.01 % ID/g, an Intestine uptake (72 h post-injection) of 0.01 ± 0.01 % ID/g and a Kidneys uptake (72 h post-injection) of 0.22 ± 0.11 % ID/g. The Liver uptake (72 h post-injection) was 0.02 ± 0.01 % ID/g, the Lung uptake (72 h post-injection) was 0.02 ± 0.01 % ID/g and the Muscle uptake (72 h post-injection) was 0.01 ± 0.00 % ID/g. For the same compound, the Pancreas uptake (72 h post-injection) was 0.01 ± 0.01 % ID/g, the Seminal uptake (72 h post-injection) was 0.01 ± 0.01 % ID/g and the Spleen uptake (72 h post-injection) was 0.03 ± 0.02 % ID/g. For the same compound, the Stomach uptake (72 h post-injection) was 0.03 ± 0.03 % ID/g, the Testes uptake (72 h post-injection) was 0.01 ± 0.00 % ID/g and the Tumor uptake (72 h post-injection) was 7.80 ± 3.69 % ID/g. The Tumor/blood ratio (72 h post-injection) was 2206 ± 337, the Tumor/kidney ratio (72 h post-injection) was 38.0 ± 13.4 and the Tumor/muscle ratio (72 h post-injection) was 1378 ± 335. It also gave an Adrenal glands uptake (120 h post-injection) of 0.04 ± 0.02 % ID/g, a Blood uptake (120 h post-injection) of 0.00 ± 0.00 % ID/g and a Bone uptake (120 h post-injection) of 0.02 ± 0.01 % ID/g. It also gave a Brain uptake (120 h post-injection) of 0.01 ± 0.00 % ID/g, a Fat uptake (120 h post-injection) of 0.03 ± 0.01 % ID/g and a Heart uptake (120 h post-injection) of 0.00 ± 0.00 % ID/g. The Intestine uptake (120 h post-injection) was 0.03 ± 0.03 % ID/g, the Kidneys uptake (120 h post-injection) was 0.08 ± 0.03 % ID/g and the Liver uptake (120 h post-injection) was 0.01 ± 0.00 % ID/g. For the same compound, the Lung uptake (120 h post-injection) was 0.01 ± 0.00 % ID/g, the Muscle uptake (120 h post-injection) was 0.00 ± 0.00 % ID/g and the Pancreas uptake (120 h post-injection) was 0.00 ± 0.00 % ID/g. It also gave a Seminal uptake (120 h post-injection) of 0.00 ± 0.00 % ID/g, a Spleen uptake (120 h post-injection) of 0.02 ± 0.01 % ID/g and a Stomach uptake (120 h post-injection) of 0.05 ± 0.05 % ID/g. The Testes uptake (120 h post-injection) was 0.01 ± 0.00 % ID/g, the Tumor uptake (120 h post-injection) was 7.91±2.82 % ID/g and the Tumor/blood ratio (120 h post-injection) was 4425 ± 1485. The Tumor/kidney ratio (120 h post-injection) was 103 ± 75.9, the Tumor/muscle ratio (120 h post-injection) was 4388 ± 4211 and the “blood clearance (qualitative)” value (mouse, in vivo) was “cleared rapidly from blood”. For the same compound, the peaked tumor uptake (peak over 1-120 h) was 15.1±5.58 % ID/g.
